{"source": "patent US20260028326A1", "about": "“COMPOUND BASED ON ISOINDOLINE-SUBSTITUTED GLUTARIMIDE BACKBONE AND USE THEREOF” (GLUETACS THERAPEUTICS (SHANGHAI) CO., LTD., priority 2022, published 2026)"}
{"molecular_target": "human Cereblon WT GST-tagged protein (Homo sapiens (Human), UniProt Q96SW2)", "sequence (Q96SW2 whole entry)": "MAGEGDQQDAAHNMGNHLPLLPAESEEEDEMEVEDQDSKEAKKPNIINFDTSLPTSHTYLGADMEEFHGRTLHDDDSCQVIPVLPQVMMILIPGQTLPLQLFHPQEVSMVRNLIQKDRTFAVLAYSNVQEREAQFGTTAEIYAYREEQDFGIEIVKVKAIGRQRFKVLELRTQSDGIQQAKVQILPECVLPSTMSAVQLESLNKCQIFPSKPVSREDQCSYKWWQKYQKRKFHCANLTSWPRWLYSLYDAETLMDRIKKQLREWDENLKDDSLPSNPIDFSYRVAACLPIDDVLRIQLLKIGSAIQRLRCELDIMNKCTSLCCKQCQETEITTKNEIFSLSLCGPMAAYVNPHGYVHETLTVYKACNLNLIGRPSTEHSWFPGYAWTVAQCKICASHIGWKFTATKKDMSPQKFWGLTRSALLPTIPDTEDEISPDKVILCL", "test": "CRBN-binding affinity, HTRF (CEREBLON BINDING kit)", "experimental": "The CEREBLON BINDING kits (specification: 10,000 tests; product number: Catalog #64BDCRBNPEH; CISBIO company) was used to determine the CRBN binding ability of the compounds to be tested through a HTRF method (homogeneous time-resolved fluorescence). The specific methods are as follows: • 1. […] Then, 2.5 μL of human Cereblon WT GST-tagged protein solution was added to each well. Finally, 5 μL of the thoroughly mixed Thalidomide-Re reagent and GST Eu antibody working solution were added to each of the aforementioned wells. […] The blank control wells were sequentially added with 2.5 μL of diluent #9 (1×) solution, 2.5 μL of PROTAC binding buffer, and 5 μL of thoroughly mixed Thalidomide-Re reagent and GST Eu antibody working solution. • 4.\nThe corresponding CRBN binding inhibition rate was calculated using the following method: […]", "units": {"IC50": "µM"}}
{"compound": "O=C1CCC(N2Cc3cc(CN4CCC(Nc5ccccc5-c5ccc(Cl)cc5)CC4)ccc3C2=O)C(=O)N1", "note": "(centres unmarked) [GT-03991, 3-(5-((4-((4′-chloro-[1,1′-biphenyl]-2-yl)amino)piperidin-1-yl)methyl)-1-oxoisoindolin-2-yl)piperidine-2,6-dione]", "IC50": 0.47}
{"compound": "O=C1CCC(N2C(=O)c3ccc(N4CC5CCC4CN5Cc4ccccc4-c4ccc(Cl)cc4)cc3C2=O)C(=O)N1", "note": "(centres unmarked) [GT-05374, 5-(5-((4′-chloro-[1,1′-biphenyl]-2-yl)methyl)-2,5-diazabicyclo[2.2.2]octan-2-yl)-2-(2,6-dioxopiperidin-3-yl)isoindoline-1,3-dione]", "IC50": 0.52}
{"compound": "CC1(C)CCC(CN2C[C@H]3C[C@@H]2CN3C(=O)c2ccc3c(c2)CN(C2CCC(=O)NC2=O)C3=O)=C(c2ccc(Cl)cc2)C1", "note": "(stereo partly drawn) [GT-05441, 3-(5-((1R,4R)-5-((4′-chloro-5,5-dimethyl-3,4,5,6-tetrahydro-[1,1′-biphenyl]-2-yl)methyl)-2,5-diazabicyclo[2.2.1]heptane-2-carbonyl)-1-oxoisoindolin-2-yl)piperidine-2,6-dione]", "IC50": 1.57}
{"compound": "CC1(C)CCC(CN2CCC3(CC2)CN(Cc2ccc4c(c2)CN(C2CCC(=O)NC2=O)C4=O)C3)=C(c2ccc(F)cc2)C1", "note": "(centres unmarked) [GT-05506, 3-(5-((7-((4′-fluoro-5,5-dimethyl-3,4,5,6-tetrahydro-[1,1′-biphenyl]-2-yl)methyl)-2,7-diazaspiro[3.5]nonan-2-yl)methyl)-1-oxoisoindolin-2-yl)piperidine-2,6-dione]", "IC50": 0.54}
{"compound": "CC1(C)CCC(CN2CC3(C2)CN(C(=O)c2ccc4c(c2)CN(C2CCC(=O)NC2=O)C4=O)C3)=C(c2ccc(F)cc2)C1", "note": "(centres unmarked) [GT-05508, 3-(5-(6-((4′-fluoro-5,5-dimethyl-3,4,5,6-tetrahydro-[1,1′-biphenyl]-2-yl)methyl)-2,6-diazaspiro[3.3]heptane-2-carbonyl)-1-oxoisoindolin-2-yl)piperidine-2,6-dione]", "IC50": 0.72}
{"compound": "CC1(C)CCC(C(=O)N2CC(Cc3ccc4c(c3)CN(C3CCC(=O)NC3=O)C4=O)C2)=C(c2ccc(Cl)cc2)C1", "note": "(centres unmarked) [GT-05419, 3-(5-((1-(4′-chloro-5,5-dimethyl-3,4,5,6-tetrahydro-[1,1′-biphenyl]-2-carbonyl)azetidin-3-yl)methyl)-1-oxoisoindolin-2-yl)piperidine-2,6-dione]", "IC50": 0.72}
{"compound": "O=C1CCC(N2Cc3cc(CN4CC5CC(C4)N5C(=O)c4ccccc4-c4ccc(Cl)cc4)ccc3C2=O)C(=O)N1", "note": "(centres unmarked) [GT-05669, 3-(5-((6-(4′-chloro-[1,1′-biphenyl]-2-carbonyl)-3,6-diazabicyclo[3.1.1]heptan-3-yl)methyl)-1-oxoisoindolin-2-yl)piperidine-2,6-dione]", "IC50": 0.63}
{"compound": "O=C1CCC(N2Cc3ccc(CN4CCN(Cc5ccccc5-c5ccc(F)cc5)CC4)cc3C2=O)C(=O)N1", "note": "(centres unmarked) [GT-05606, 3-(6-((4-((4′-fluoro-[1,1′-biphenyl]-2-yl)methyl)piperazin-1-yl)methyl)-1-oxoisoindolin-2-yl)piperidine-2,6-dione]", "IC50": 1.18}
{"compound": "CC1(C)CCC(CN2CC(Cc3ccc4c(c3)CN(C3CCC(=O)NC3=O)C4=O)C2)=C(c2ccc(F)cc2)C1", "note": "(centres unmarked) [GT-05493, 3-(5-((1-((4′-fluoro-5,5-dimethyl-3,4,5,6-tetrahydro-[1,1′-biphenyl]-2-yl)methyl)azetidin-3-yl)methyl)-1-oxoisoindolin-2-yl)piperidine-2,6-dione]", "IC50": 0.76}
{"compound": "CC1(C)CCC(CN2C3CC2CN(C(=O)c2ccc4c(c2)CN(C2CCC(=O)NC2=O)C4=O)C3)=C(c2ccc(Cl)cc2)C1", "note": "(centres unmarked) [GT-05457, 3-(5-(6-((4′-chloro-5,5-dimethyl-3,4,5,6-tetrahydro-[1,1′-biphenyl]-2-yl)methyl)-3,6-diazabicyclo[3.1.1]heptane-3-carbonyl)-1-oxoisoindolin-2-yl)piperidine-2,6-dione]", "IC50": 1.26}
{"compound": "CC1(C)CC(c2ccc(Cl)cc2)=C(CN2CCN(C(=O)c3ccc4c(c3)CN(C3CCC(=O)NC3=O)C4=O)CC2)CO1", "note": "(centres unmarked) [GT-05673, 3-(5-(4-((4-(4-chlorophenyl)-6,6-dimethyl-5,6-dihydro-2H-pyran-3-yl)methyl)piperazine-1-carbonyl)-1-oxoisoindolin-2-yl)piperidine-2,6-dione]", "IC50": 1.14}
